From patent US12194033B2, “Glycine receptor modulators and methods of use” (University of Pittsburgh—Of the Commonwealth System of …, priority 2017, dated 2025) come the findings set out here.

Data set [1] has as its target T1, S296A mutation in α3GlyR (Homo sapiens, UniProt O75311, S329A).
T1 construct: expressed in transfected cells; host or cells: Xenopus laevis oocytes
T1 sequence (O75311 34-464 S329A): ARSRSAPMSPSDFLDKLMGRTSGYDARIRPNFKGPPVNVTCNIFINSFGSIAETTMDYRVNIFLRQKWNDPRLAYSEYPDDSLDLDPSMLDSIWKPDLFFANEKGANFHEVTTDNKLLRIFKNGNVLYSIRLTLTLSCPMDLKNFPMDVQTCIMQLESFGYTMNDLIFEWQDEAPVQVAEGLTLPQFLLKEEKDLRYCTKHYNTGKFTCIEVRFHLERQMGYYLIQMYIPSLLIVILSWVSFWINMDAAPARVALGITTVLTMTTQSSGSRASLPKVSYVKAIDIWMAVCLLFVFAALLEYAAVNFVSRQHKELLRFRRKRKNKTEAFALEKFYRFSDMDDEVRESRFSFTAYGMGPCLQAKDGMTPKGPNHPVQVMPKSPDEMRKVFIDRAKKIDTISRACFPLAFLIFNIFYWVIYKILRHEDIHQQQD
Nature of the data set: Electrophysiology on Xenopus laevis oocytes, S296A mutant. The class given is cell-based. The conditions noted are these: EC2 agonist, 10 μM compound. How it is done: MJPY1 potentiates α3GlyR through binding to the THC-binding site near S296 in the transmembrane domain (TMD). Like α3GlyR, but unlike ELIC, the chimera ELIC-α3GlyR containing the α3GlyR TMD is potentiated by MJPY1. The S296A mutation in α3GlyR abolishes compound 1 (MJPY1)'s potentiation. Data were recorded at EC2 agonist for the indicated channels and are reported as the ratio of currents in the presence (I) and absence (Io) of 10 μM compound 1 (MJPY1). Error bars represent SEM (n≥4 oocytes).

Data set [2] deals with inflammatory markers in the liver and spleen of mice. The data set can be described thus: In vivo immune responses by flow cytometry. The conditions noted are these: 2 mg/kg, ~16 hours prior to sacrifice. The protocol:
Toxicity was evaluated using in vitro Ames test and in vivo immune responses flow cytometry. Compound 1 (MJPY1) at each concentration was tested in three 48-well plates using the TA100 strain Salmonella typhimurium and S9 rat liver extract for base-pair substitution mutations. Error bars represent SEM. Significance (p<0.05) was evaluated compared to the control (0 μM) using one-way ANOVA with the Bonferroni post-hoc test. FIGS. 15A and 15B show flow cytometry evaluation of common inflammatory markers in the liver and spleen of mice in response to compound 1 (MJPY1) treatment. Mice received either 2 mg/kg of MJPY1 (right) or vehicle (left) ˜16 hours prior to sacrifice and tissue collection. Significant differences between the treatment and control were observed only for decreased CD11b+ in the liver of mice treated with MJPY1 (p<0.001). […] Results were analyzed by one-way ANOVA with Bonferroni post-hoc test.
A general note: A flow cytometer gives signals particle by particle.

Data set [3] deals with MOR (Homo sapiens, UniProt P35372). Nature of the data set: Radioligand binding assay, off-target profiling. The conditions noted are these: 10 M MJPY1, mean, n = 4.
Data set [4] addresses NOR (Homo sapiens, UniProt P41146). The data set can be described thus: Radioligand binding assay, off-target profiling. The settings on record: 10 M MJPY1, mean, n = 4.
Data set [5] addresses hERG (Homo sapiens, UniProt Q12809). Nature of the data set: Radioligand binding assay, off-target profiling. The settings on record: 10 µM MJPY1, mean, n = 4.

Chain of hERG (Q12809 whole entry): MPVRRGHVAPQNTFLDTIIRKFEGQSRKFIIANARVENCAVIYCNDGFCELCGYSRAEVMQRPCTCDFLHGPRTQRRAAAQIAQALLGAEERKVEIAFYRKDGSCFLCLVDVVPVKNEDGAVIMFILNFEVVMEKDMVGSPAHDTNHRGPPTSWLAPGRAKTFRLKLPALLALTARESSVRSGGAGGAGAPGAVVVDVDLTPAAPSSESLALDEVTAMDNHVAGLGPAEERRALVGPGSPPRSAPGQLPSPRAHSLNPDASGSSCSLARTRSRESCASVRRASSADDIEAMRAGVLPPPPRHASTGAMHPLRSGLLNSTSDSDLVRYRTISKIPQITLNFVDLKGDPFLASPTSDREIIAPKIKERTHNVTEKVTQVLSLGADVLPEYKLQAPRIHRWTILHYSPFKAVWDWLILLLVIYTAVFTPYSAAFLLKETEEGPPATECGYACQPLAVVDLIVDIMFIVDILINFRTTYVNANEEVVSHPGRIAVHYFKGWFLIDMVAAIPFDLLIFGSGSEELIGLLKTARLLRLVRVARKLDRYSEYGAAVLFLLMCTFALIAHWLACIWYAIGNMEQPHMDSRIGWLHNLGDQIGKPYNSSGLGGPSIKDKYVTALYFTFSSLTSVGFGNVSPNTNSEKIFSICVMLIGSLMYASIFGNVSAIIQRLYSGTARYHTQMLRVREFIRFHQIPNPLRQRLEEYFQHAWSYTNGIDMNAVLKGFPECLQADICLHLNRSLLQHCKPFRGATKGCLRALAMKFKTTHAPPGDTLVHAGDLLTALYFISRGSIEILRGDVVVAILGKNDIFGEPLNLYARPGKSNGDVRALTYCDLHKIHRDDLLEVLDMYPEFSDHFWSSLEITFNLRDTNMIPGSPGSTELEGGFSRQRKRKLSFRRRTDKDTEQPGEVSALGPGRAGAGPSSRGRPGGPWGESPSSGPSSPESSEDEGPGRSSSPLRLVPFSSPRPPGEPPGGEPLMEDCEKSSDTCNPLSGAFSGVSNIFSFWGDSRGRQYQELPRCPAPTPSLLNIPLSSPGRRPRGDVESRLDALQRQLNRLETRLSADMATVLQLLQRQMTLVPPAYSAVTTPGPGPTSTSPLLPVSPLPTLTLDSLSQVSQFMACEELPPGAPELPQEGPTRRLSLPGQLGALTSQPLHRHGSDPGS
Chain of NOR (P41146 whole entry): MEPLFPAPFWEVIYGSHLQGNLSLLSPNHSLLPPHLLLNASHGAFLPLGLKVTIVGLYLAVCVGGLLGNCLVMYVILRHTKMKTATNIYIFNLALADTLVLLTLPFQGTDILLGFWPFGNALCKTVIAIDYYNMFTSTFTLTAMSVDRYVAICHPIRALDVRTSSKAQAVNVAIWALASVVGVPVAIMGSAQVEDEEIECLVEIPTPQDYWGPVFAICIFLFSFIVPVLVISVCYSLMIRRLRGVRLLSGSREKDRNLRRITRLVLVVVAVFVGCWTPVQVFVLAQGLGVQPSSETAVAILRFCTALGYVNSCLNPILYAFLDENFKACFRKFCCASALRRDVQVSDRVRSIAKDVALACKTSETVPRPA
Chain of MOR (P35372 whole entry): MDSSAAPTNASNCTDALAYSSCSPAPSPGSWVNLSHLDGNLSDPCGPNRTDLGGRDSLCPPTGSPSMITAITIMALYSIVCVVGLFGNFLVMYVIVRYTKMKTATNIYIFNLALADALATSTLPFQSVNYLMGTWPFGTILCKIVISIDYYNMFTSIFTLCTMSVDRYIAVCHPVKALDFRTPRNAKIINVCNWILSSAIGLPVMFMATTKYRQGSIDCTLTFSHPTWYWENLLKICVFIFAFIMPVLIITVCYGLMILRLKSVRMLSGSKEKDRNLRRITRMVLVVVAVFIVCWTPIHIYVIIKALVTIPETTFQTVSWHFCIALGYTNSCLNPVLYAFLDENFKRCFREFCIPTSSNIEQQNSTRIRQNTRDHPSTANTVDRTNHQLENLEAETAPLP

By inhibition is commonly meant the drop in the measured response relative to a control, in per cent. As to `NC(=O)c1cccc(CNC(=O)c2ccc3c4c(cccc24)CC3)c1` [compound 1, N-[(3-carbamoylphenyl)-methyl]-1,2-dihydroacenaphthylene-5-carboxamide], the “potentiation of α3GlyR S296A (I/Io)” value in data set [1] was “abolishes”. Besides, in data set [2] (liver and spleen), the “overall immune response to treatment” value was “minimal immune response”. The “CD11b+ in the liver vs vehicle” value in data set [2] (p<0.001) is on record as “decreased”. The “% Inhibition MOR” value in data set [3] was found to be 20.6%. In data set [4], the “% Inhibition NOR” value is on record as −16.8%. In data set [5], the inhibition at 10 µM is -19.5%.
